In the NIST ThermoML archive (doi:10.1016/j.jct.2010.08.019):

Experiment: xn = mol fraction of the nth substance listed
Conditions: for surface tension liquid-gas: Wilhelmy-plate method; for viscosity / mass density: 101 kPa, Liquid; for viscosity: Falling or rolling sphere viscometry; for mass density: Vibrating tube method

C1CCOCC1 [tetrahydropyran] + CC(C)CC(C)(C)C
Conditions | mass density [kg/m3] | surface tension liquid-gas [mN/m] | viscosity [mPa·s]
293.15 K, x1 = 0.0502 | 697.82 | 18.9 | 0.506
293.15 K, x1 = 0.1 | 703.85 | 19 | 0.514
293.15 K, x1 = 0.1499 | 710.17 | 19.2 | 0.524
293.15 K, x1 = 0.2 | 716.8 | 19.4 | 0.533
293.15 K, x1 = 0.25 | 723.72 | 19.6 | 0.544
293.15 K, x1 = 0.3 | 730.98 | 19.8 | 0.553
293.15 K, x1 = 0.35 | 738.59 | 20.1 | 0.564
293.15 K, x1 = 0.4 | 746.55 | 20.3 | 0.577
293.15 K, x1 = 0.4498 | 754.88 | 20.6 | 0.592
293.15 K, x1 = 0.5001 | 763.72 | 20.9 | 0.606
293.15 K, x1 = 0.5501 | 772.97 | 21.2 | 0.623
293.15 K, x1 = 0.5999 | 782.67 | 21.6 | 0.638
293.15 K, x1 = 0.6501 | 793 | 22 | 0.655
293.15 K, x1 = 0.6999 | 803.82 | 22.5 | 0.675
293.15 K, x1 = 0.75 | 815.32 | 23.1 | 0.696
293.15 K, x1 = 0.8 | 827.51 | 23.6 | 0.718
293.15 K, x1 = 0.8501 | 840.43 | 24.3 | 0.743
293.15 K, x1 = 0.9 | 854.12 | 25.2 | 0.771
293.15 K, x1 = 0.95 | 868.68 | 26.3 | 0.803
293.15 K, x1 = 1 | 884.27 | 27.5 | 0.86
303.15 K, x1 = 0.0502 | 689.38 | 18 | 0.452
303.15 K, x1 = 0.1 | 695.35 | 18.2 | 0.455
303.15 K, x1 = 0.1499 | 701.6 | 18.3 | 0.463
303.15 K, x1 = 0.2 | 708.16 | 18.6 | 0.47
303.15 K, x1 = 0.25 | 715.01 | 18.8 | 0.478
303.15 K, x1 = 0.2999 | 722.17 | 19 | 0.488
303.15 K, x1 = 0.3498 | 729.67 | 19.2 | 0.497
303.15 K, x1 = 0.3998 | 737.56 | 19.5 | 0.509
303.15 K, x1 = 0.4498 | 745.84 | 19.7 | 0.52
303.15 K, x1 = 0.5001 | 754.6 | 20 | 0.533
303.15 K, x1 = 0.5501 | 763.76 | 20.3 | 0.546
303.15 K, x1 = 0.5999 | 773.38 | 20.6 | 0.56
303.15 K, x1 = 0.6501 | 783.61 | 21 | 0.574
303.15 K, x1 = 0.6999 | 794.32 | 21.5 | 0.59
303.15 K, x1 = 0.75 | 805.72 | 22.1 | 0.607
303.15 K, x1 = 0.8 | 817.78 | 22.6 | 0.625
303.15 K, x1 = 0.8501 | 830.59 | 23.3 | 0.646
303.15 K, x1 = 0.9 | 844.14 | 24.2 | 0.67
303.15 K, x1 = 0.95 | 858.58 | 25.2 | 0.699
303.15 K, x1 = 1 | 874.07 | 26.2 | 0.749
313.15 K, x1 = 0.0501 | 680.92 | 17.1 | 0.407
313.15 K, x1 = 0.1002 | 686.85 | 17.3 | 0.411
313.15 K, x1 = 0.1501 | 693.02 | 17.5 | 0.416
313.15 K, x1 = 0.1999 | 699.48 | 17.7 | 0.422
313.15 K, x1 = 0.2501 | 706.27 | 17.9 | 0.429
313.15 K, x1 = 0.3 | 713.35 | 18.1 | 0.437
313.15 K, x1 = 0.3499 | 720.78 | 18.4 | 0.444
313.15 K, x1 = 0.4002 | 728.64 | 18.6 | 0.453
313.15 K, x1 = 0.4502 | 736.83 | 18.9 | 0.463
313.15 K, x1 = 0.4999 | 745.4 | 19.1 | 0.473
313.15 K, x1 = 0.5499 | 754.47 | 19.4 | 0.484
313.15 K, x1 = 0.6 | 764.05 | 19.7 | 0.496
313.15 K, x1 = 0.65 | 774.13 | 20.1 | 0.509
313.15 K, x1 = 0.6998 | 784.75 | 20.6 | 0.523
313.15 K, x1 = 0.75 | 796.05 | 21.2 | 0.538
313.15 K, x1 = 0.8001 | 808 | 21.7 | 0.554
313.15 K, x1 = 0.8501 | 820.66 | 22.4 | 0.573
313.15 K, x1 = 0.9001 | 834.12 | 23.2 | 0.596
313.15 K, x1 = 0.9498 | 848.37 | 24.1 | 0.624
313.15 K, x1 = 1 | 863.76 | 25.1 | 0.658
323.15 K, x1 = 0.0501 | 672.44 | 16.4 | 0.366
323.15 K, x1 = 0.1002 | 678.3 | 16.6 | 0.369
323.15 K, x1 = 0.1501 | 684.41 | 16.7 | 0.372
323.15 K, x1 = 0.1999 | 690.79 | 17 | 0.377
323.15 K, x1 = 0.2501 | 697.5 | 17.2 | 0.383
323.15 K, x1 = 0.3 | 704.51 | 17.3 | 0.39
323.15 K, x1 = 0.3499 | 711.86 | 17.5 | 0.398
323.15 K, x1 = 0.4002 | 719.63 | 17.8 | 0.406
323.15 K, x1 = 0.45 | 727.72 | 18 | 0.415
323.15 K, x1 = 0.5002 | 736.27 | 18.3 | 0.424
323.15 K, x1 = 0.55 | 745.22 | 18.5 | 0.433
323.15 K, x1 = 0.5997 | 754.63 | 18.8 | 0.443
323.15 K, x1 = 0.65 | 764.68 | 19.2 | 0.454
323.15 K, x1 = 0.6998 | 775.17 | 19.6 | 0.466
323.15 K, x1 = 0.75 | 786.37 | 20.1 | 0.479
323.15 K, x1 = 0.8001 | 798.2 | 20.7 | 0.493
323.15 K, x1 = 0.8501 | 810.77 | 21.3 | 0.508
323.15 K, x1 = 0.9002 | 824.1 | 22.1 | 0.523
323.15 K, x1 = 0.95 | 838.27 | 22.9 | 0.541
323.15 K, x1 = 1 | 853.46 | 23.8 | 0.565
